Source: patent US20240337647A1, “IMPROVED METHODS FOR IDENTIFICATION OF FUNCTIONAL CELL STATES” (priority 2021, published 2024)
Where two headings read alike, the source gives them in different places.

Columns and labels:
[1] = tested on: biomolecular targets known to be associated with common negative side effects of pharmaceuticals in humans; experiment: In vitro secondary pharmacology panels, all targets of the two panels (31 dose-response + 78 single concentration); assay type: biochemical; conditions: percentage of targets hit among all targets tested in the two secondary pharmacology panels
Procedure: The purpose of this study was to assess the toxicity risk estimation provided by the Cell Health Screen relative to information from panels of in vitro pharmacology assays that were also designed to detect toxicity risk during pharmaceutical development. This study was performed with outside collaborators who have expertise in the use of the in vitro pharmacology assays. These in vitro assay panels detect whether chemical compounds directly interact with biomolecular targets known to be associated with toxic side effects in humans (mostly enzymes, cell surface receptors, and other proteins that participate in signaling pathways) (Pottel et al., 2020). […] As such, the interpretation process is somewhat subjective. In contrast, the Cell Health Screen uses a feature extraction and ML classifier strategy described above, to reduce all cellular phenotypic changes caused by a chemical compound to a single probability value, from 0 to 1. This is a quantitative toxicity risk estimation relative to a training set of compounds used to train the ML classifier. Therefore, comparing results from the Cell Health Screen to the in vitro pharmacology panels is a matter of comparing the trend in ML classifier probability values, across all 40 excipients, with their relative degrees of promiscuity and target interaction potency observed in the in vitro pharmacology panels.
(§1) For a detailed description of our collaborators' in vitro pharmacology assay panels, please see the publication by Pottel et al. (Pottel et al., 2020). Briefly, each in vitro assay focuses on one biomolecular target known to be associated with common negative side effects of pharmaceuticals in humans. These targets are generally enzymes, cell surface receptors, or other proteins that mediate cell signal transduction. In one assay panel, chemical compound interaction is assessed for 31 biomolecular targets in a dose-response fashion, which assesses compound-target interaction strength expressed as an IC50 and an activity range (unless no interaction happens).
Here we present two summarized versions of the study results. […] For the biological endpoints, the abbreviation key is as follows: CM=cell morphology, CMI=cell membrane integrity, ROS=reactive oxygen species, GTH=glutathione, NMI1=nuclear membrane integrity 1, CC=cell cycle, NMI2=nuclear membrane integrity 2, MMP=mitochondrial membrane potential. […] This is the percentage of all biomolecular targets for which an effect was observed, for each excipient. The THR value serves as an expression of an excipient's promiscuity with regard to binding biomolecular targets known to associate with toxic side effects in humans.

[2] = tested on: HL60 cells; experiment: AsedaSciences SYSTEMETRIC Cell Health Screen (multiparametric acute cell stress assay, flow cytometry, ML classifier); conditions: probability (0 to 1) of assignment to the 'yes' high cell stress class; HL60, 4 hours, 5 nM-100 μM
Source text: The Cell Health Screen is a multiparametric acute cell stress assay, using a panel of fluorescent physiological reporting dyes, on an automated flow cytometry platform. Rather than simply producing dose-response curves for all individual biological readouts, features are generated by computing custom-defined distance functions between test and control wells. All test compounds are represented as feature vectors, after which the analysis algorithm employs a logistic regression model to classify test compounds relative to a training set. This machine learning (ML) approach integrates all measured readouts into a single predictive statistical model. […] This training set empirically covers the full range of possible phenotypes in the Cell Health Screen, from no-response to acute stress, with sufficient representation across the spectrum. Training set compounds were assigned to binary classes (“yes”=expectation of high cell stress or “positive” phenotype; “no”=no expectation of positive phenotype). This externally established ground-truth was based upon manually curated information from research literature and, where applicable, clinical trial results and commercial/regulatory histories.
For an unknown test compound, the ML classifier uses all the FC parameter features describing compound response, simultaneously, to predict the final assignment. This is achieved by calculating the probability of assigning that compound's screen phenotype to the “yes” class defined by the training set. By specifying the problem as a classification challenge, the data analysis pipeline assures that any apparent lack of coordinated change among biological readouts presents no interpretation challenge. All phenotypic data are treated simply as input features to a statistical model. In contrast, many conventional flow cytometry assays require strict mechanistic interpretation of every measured biological readout. often resulting in conflicting conclusions (e.g. if reactive oxygen species increase, but glutathione is unaffected, which should be “believed”?). The final probability score, or Cell Health Index, is a quantitative assessment of a multiparametric phenotype's similarity to a diverse set of known good and bad actors. Finally, choosing HL60 as our reporter cell line means that the screen is explicitly designed not to detect instances in which a parent compound only causes cellular toxicity via metabolites.
In a 384-well platform. HL60 cells are exposed to a 10-step, 3× dilution series of each test compound (5 nM-100 μM) for 4 hours at 37° C. with 5% CO2. Each dilution series is screened in duplicate, occupying a total of 20 wells, allowing 16 test compounds to be assayed on each plate. Each row contains one positive and one negative control well, for a total of 16 matched control pairs on each assay plate. Compound formatting, cell deposition, and dye application are performed robotically, so that final assay conditions comprise 100,000 cells in a 40 μl volume. After compound exposure, live cells are rapidly stained with a panel of fluorescent dyes that report physiological signatures of both mitochondrial dysfunction and gross cell stress. Fluorescence data are collected using automated flow cytometry with no gating. […] Well-specific flow cytometry data files, with an accompanying map of well contents, are moved to cloud infrastructure where the automated algorithm for quality control and ML classification is triggered. […]

[3] = tested on: 31 biomolecular targets; experiment: In vitro pharmacology panel of 31 biomolecular targets, dose-response; assay type: biochemical; conditions: for IC50: read-out: Avg potency
Procedure: as §1
These last two features are derived from the first panel of 31 biomolecular targets, which are assayed using a concentration series of each excipient to produce a dose-response curve.

[4] = average concentration of the IC50 values from dose-response results, panel of 31 targets
[5] = first panel of 31 biomolecular targets, concentration series

Row | Compound | Overall target hit rate [1] [%] | CHI score (Cell Health Index) [2] | IC50 [3, 4] [µM] | Activity range [3, 5] [µM] | IC50 [3] [µM] | Activity range [3] [µM]
1 | CC(C)(C)CC(C)(C)c1ccc(OCCOCC[N+](C)(C)Cc2ccccc2)cc1 [Benzethonium chloride] | 51 |  |  |  |  | 
2 | Cc1cc(O)cc(C)c1Cl [Chloroxylenol, 4-chloro-3,5-dimethylphenol] | 6 | 0.349 | 12 | 10 to 14 |  | 
3 | O=C([O-])c1c(Cl)c(Cl)c(Cl)c(Cl)c1-c1c2cc(Br)c(=O)c(Br)c-2oc2c(Br)c([O-])c(Br)cc12.[Na+].[Na+] [D&C Red #28, Phloxine B] | 55 | 0.637 |  | 0.13 to 28 | 10 | 
4 | O=C1OC2(c3ccccc31)c1cc(I)c(O)c(I)c1Oc1c2cc(I)c(O)c1I [FD&C Red #3, Erythrosine extra bluish] | 48 |  | 5.7 | 0.09 to 25 |  | 
5 | CN(C)c1ccc2nc3ccc(=[N+](C)C)cc-3sc2c1 [Methylene blue hydrate] | 48 |  | 6.5 | 0.04 to 24 |  | 
6 | CC(=O)[O-].[Hg+][c]1ccccc1 [Phenylmercuric acetate] | 58 | 0.955 |  |  | 5 | 0.02 to 22
7 | CCCOC(=O)c1cc(O)c(O)c(O)c1 [Propyl gallate] | 3 |  | 7.2 | 0.015 to 7.2 |  | 
8 | CCCOC(=O)c1ccc(O)cc1 [Propylparaben] | 3 |  | 19.3 | 11 to 24 |  | 
9 | C[CH2][Hg][S]c1ccccc1C(=O)[O-].[Na+] [Thimerosal] | 17 | 0.936 |  |  | 15 | 0.32 to 30
10 | Polysorbate 80 | 13 | 0.422 |  | 1.0 to 21 | 10.7 | 
